These results are taken from patent US9937165B2, “Pharmacological chaperones for treating obesity” (Amicus Therapeutics, Inc., priority 2005, dated 2018).

For data set [1] the following is noted: in vivo; cited from earlier work.
Data set [2] concerns the target T1, hMC4R mutant S58C (Homo sapiens, UniProt P32245, S58C).
T1 construct: expressed in transfected cells; host or cells: HEK 293 cells, transient transfection
The data set is described as follows: Pharmacological chaperone assay, cell surface expression by FACS, mutant S58C. The format is cell-based. On the procedure:
(§1) HEK 293 cells were transiently transfected with wild-type (WT) or the following hMC4R mutants double tagged with 3HA and Venus (Enhanced Yellow Green Fluorescent Protein; EYFP): S58C; N62S; R165W; R165Q, and P299H.
(§2) FACS analysis was performed after fluorescently labeling cells with primary anti-HA.11 antibody (mouse; 1:1000 dilution) and the secondary antibody coupled to Alexa 647 (goat anti-mouse; 1:1000 dilution) dilution. Live cells (propidium iodide negative) were sorted into the following two relevant populations: • P4: Total YFP positive cells (representative of total MC4R expression) • P5: Percent of cells positive for both YFP and Alexa 647 (Alexa and YFP positive cells)/(YFP positive cells+Alexa and YFP positive cells) (representative of cell surface expression)
(§3) Briefly, cells harboring each of the above-referenced MC4R mutants (transfected as described in Example 3) were cultured with each of the antagonist compounds at concentrations of 1.0 μM and 10 μM for 12 h and evaluated for cell surface expression of MC4R using fluorescent activated cell sorting analysis as described above. Cell surface expression levels are compared between treatment and basal conditions. Percent Gain is determined according to the following: [Gain=[(% of surface expression (with treatment)−% of surface expression (w/o treatment))/% of surface expression (w/o treatment)]*100.
Background: A flow cytometer gives signals particle by particle.

Data set [3] addresses T2, hMC4R mutant N62S (Homo sapiens, UniProt P32245, N62S).
T2 construct: expressed in transfected cells; host or cells: HEK 293 cells, transient transfection
The data set is described as follows: Pharmacological chaperone assay, cell surface expression by FACS, mutant N62S. Format: cell-based. The settings on record: 12 h. On the procedure: as §1, §2, §3

For data set [4], the target named is T3, hMC4R mutant R165W (Homo sapiens, UniProt P32245, R165W).
T3 construct: expressed in transfected cells; host or cells: HEK 293 cells, transient transfection
Kind of data set: Pharmacological chaperone assay, cell surface expression by FACS, mutant R165W. The format is cell-based. The method, then:
as §1, §2, §3

Data set [5] concerns the target T4, hMC4R mutant R165Q (Homo sapiens, UniProt P32245, R165Q).
T4 construct: expressed in transfected cells; host or cells: HEK 293 cells, transient transfection
Kind of data set: Pharmacological chaperone assay, cell surface expression by FACS, mutant R165Q. The format is cell-based. The conditions noted are these: 12 h. The method, then: as §1, §2, §3

In data set [6] the target is T5, hMC4R mutant P299H (Homo sapiens, UniProt P32245, P299H).
T5 construct: expressed in transfected cells; host or cells: HEK 293 cells, transient transfection
The data set is described as follows: Pharmacological chaperone assay, cell surface expression by FACS, mutant P299H. The format is cell-based. The conditions noted are these: 12 h. On the procedure: as §1, §2, §3

Data set [7] has as its system WT and mutant hMC4R (S58C; N62S; R165W; R165Q; P299H) in HEK 293 cells. Kind of data set: Chemical chaperone assay, MC4R cell surface expression by FACS. Format: cell-based, human. The conditions noted are these: 1% DMSO, 12 hours. On the procedure:
as §1
WT and transiently transfected cells were incubated in the presence or absence of 1% DMSO for 12 hours prior to evaluation of MC4R cells surface expression.
as §2

Data set [8] concerns the target MC4R as compared to the MC3R (Homo sapiens, UniProt P32245). The settings on record: cited from earlier work.
Data set [9] concerns the target MC4R as compared to the MC5R (Homo sapiens, UniProt P32245). The settings on record: cited from earlier work.
In data set [10] the target is MC4R (Homo sapiens, UniProt P32245). The settings on record: MC4R antagonist; cited from earlier work.
The target of data set [11] is MC4R over MC3R (Homo sapiens, UniProt P32245). The conditions noted are these: cited from earlier work.

Square brackets hold non-standard residues; d marks the D form. d2Nal = N[C@H](Cc1ccc2ccccc2c1)C(=O)O; Nle = CCCC[C@H](N)C(=O)O

T4 sequence (P32245 whole entry R165Q): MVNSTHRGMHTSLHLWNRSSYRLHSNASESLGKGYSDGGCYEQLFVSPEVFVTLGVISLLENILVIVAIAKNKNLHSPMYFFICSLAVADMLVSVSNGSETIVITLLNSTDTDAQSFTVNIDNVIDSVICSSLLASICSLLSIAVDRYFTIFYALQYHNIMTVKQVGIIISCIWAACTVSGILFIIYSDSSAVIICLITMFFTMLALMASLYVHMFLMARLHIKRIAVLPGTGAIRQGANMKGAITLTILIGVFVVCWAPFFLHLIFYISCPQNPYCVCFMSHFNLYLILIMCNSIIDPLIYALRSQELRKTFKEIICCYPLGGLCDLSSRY
T1 sequence (P32245 whole entry S58C): as the sequence (P32245 whole entry R165Q) above, with S58C, Q165R counted along it
T3 sequence (P32245 whole entry R165W): as the sequence (P32245 whole entry R165Q) above, with Q165W counted along it
T5 sequence (P32245 whole entry P299H): as the sequence (P32245 whole entry R165Q) above, with Q165R, P299H counted along it
T2 sequence (P32245 whole entry N62S): as the sequence (P32245 whole entry R165Q) above, with N62S, Q165R counted along it
Chain of MC4R as compared to the MC5R (P32245 whole entry): as the sequence (P32245 whole entry R165Q) above, with Q165R counted along it
Chain of MC4R (P32245 whole entry): as the sequence (P32245 whole entry R165Q) above, with Q165R counted along it
Chain of MC4R over MC3R (P32245 whole entry): as the sequence (P32245 whole entry R165Q) above, with Q165R counted along it
Chain of MC4R as compared to the MC3R (P32245 whole entry): as the sequence (P32245 whole entry R165Q) above, with Q165R counted along it

On to `O=C(N[C@H](Cc1ccc(Cl)cc1)C(=O)N1CCC(Cn2cncn2)(C2CCCCC2)CC1)[C@H]1Cc2ccccc2CN1` [Compound 1, THIQ], for which, in data set [1], the “PK %F” value is given as “%F 14”, the “PK Cl” value is “Cl 84 mLmin/kg”, the “PK Vd” value is recorded as “Vd 3.6 L/kg” and the “PK t½” value is recorded as “t½ 0.6 h”.

Take `CC(CN1CCN(CC(c2ccc(F)cc2)N2CCN(C)CC2)CC1)C(=O)c1ccccc1` (stereo not drawn) [Compound 3]: the “% Gain in cell surface expression” value in [2] (1 μM, 12 h) was 77.5%; in data set [2] (10 μM, 12 h) it was 130%; in data set [3] (1 μM) it was 25%; in [3] (10 μM), 343.75%; in [3] (10 μM, listed as compound depicted in FIG. 5) it was “more potent”; in [4] (1 μM, 12 h) it was 467%. Also, the “% Gain in cell surface expression” value in data set [4] (10 μM, 12 h) is 675%; in [5] (1 μM), 300%; in [5] (10 μM), 508%; in [6] (1 μM) it was 27.78%; in [6] (10 μM) it was 77.78%; in data set [6] (10 μM, listed as compound shown in FIG. 5), “only a small effect”.

On to `Br.COc1ccc([N+](=O)[O-])cc1CSc1ccccc1C1=NCCCN1` [Compound 4], for which the “% Gain in cell surface expression” value worked out at 60% in data set [2] (1 μM, 12 h); 130% in data set [2] (10 μM, 12 h); 6.25% in data set [3] (1 μM); 212.5% in data set [3] (10 μM); 150% in [4] (1 μM, 12 h); 675% in data set [4] (10 μM, 12 h). In addition, the “% Gain in cell surface expression” value is on record as 91.7% in [5] (1 μM); 508% in [5] (10 μM); 11.11% in [6] (1 μM); “no effect” in data set [6] (1 μM, listed as compound shown in FIG. 6); 38.9% in data set [6] (10 μM); “no effect” in data set [6] (10 μM, listed as compound shown in FIG. 6).

Regarding `COc1ccc(Cl)cc1Nc1nc(-c2sc(NC(=O)c3ccccc3)nc2C)cs1` [Compound 5], the “% Gain in cell surface expression” value turned out to be 31.25% in data set [2] (concentration not given) and 28.95% in [4] (concentration not given).

`C[S+](C)[O-]` [DMSO]: the “enhancement of MC4R cell surface expression” value in [7] is “No significant enhancement”.

On to “Ac-Nle-Gly-Lys-D-Nal(2)-Arg-Trp-Gly-NH(2) (Ac-[Nle]GK[d2Nal]RWG-NH2; SMILES CCCC[C@H](NC(C)=O)C(=O)NCC(=O)N[C@@H](CCCCN)C(=O)N[C@H](Cc1ccc2ccccc2c1)C(=O)N[C@@H](CCCNC(=N)N)C(=O)N[C@@H](Cc1c[nH]c2ccccc12)C(=O)NCC(N)=O)”, for which, in [8], the “selectivity for the MC4R as compared to the MC3R” value is recorded as 34 fold. The “selectivity for the MC4R as compared to the MC5R” value in [9] is recorded as 109 fold.

As for “Ac-Nle-Gly-Lys-D-Phe-Arg-Trp-Gly-NH(2) (Ac-[Nle]GK[dF]RWG-NH2; SMILES CCCC[C@H](NC(C)=O)C(=O)NCC(=O)N[C@@H](CCCCN)C(=O)N[C@H](Cc1ccccc1)C(=O)N[C@@H](CCCNC(=N)N)C(=O)N[C@@H](Cc1c[nH]c2ccccc12)C(=O)NCC(N)=O)”, the “selectivity for the MC4R as compared to the MC3R” value in data set [8] is 90 fold. The “selectivity for the MC4R as compared to the MC5R” value in data set [9] is 110 fold.

As to “Ac-Nle-c[Asp-Che-DNal(2′)-Arg-Trp-Lys-NH(2) [SHU9119 analogue, cyclic MC4R antagonist of Grieco et al., J Med Chem 2002]”, the IC50 – broadly, the concentration that inhibits the measured activity by half – in data set [10] was 0.48 nM. For the same molecule, the “selectivity over MC3R” value in data set [11] is recorded as 100 fold.

As for “Ac-Nle-c[Asp-Cpe-DNal(2′)-Arg-Trp-Lys-NH(2) [SHU9119 analogue, cyclic MC4R antagonist of Grieco et al., J Med Chem 2002]”, the IC50 in [10] is 0.51 nM. Further, in [11], the “selectivity over MC3R” value is given as 200 fold.
